Legend:
sodium channel (Nach) = assay: Inhibition of binding of [3H]BTX-B to rat forebrain homogenates; conditions: extrapolated IC50; [3H]BTX-B binding
Protocol: Experiments were performed using forebrain (whole brain less cerebellum/medulla) from Male Wistar rats weighing 175-250 g. All efforts were made to reduce the number of animals used and all experiments were carried out in accordance with the UK Animals (Scientific Procedures) Act, 1986 and the European Community Council Directive of 24 Nov. 1986 (86/609/EEC). Following killing of animals by stunning and decapitation, the forebrain (whole brain less cerebellum/medulla) was rapidly dissected and transferred to a weighed tube containing ice-cold 0.25M sucrose.
Homogenates were prepared by transferring the known weight of forebrain to a cooled tube containing 9 volumes of ice-cold 50 mM pH 7.4 HEPES buffer. The mixture was homogenised @ 4° by 3×5 sec bursts of an Ultra-Turrax™ homogeniser set at maximum speed. The resulting homogenate was centrifuged at 40,000×g (average) at 4° for 15 min and the supernatant discarded. The resulting pellet was resuspended in 9 volumes of fresh ice-cold pH 7.4 buffer (as above), the centrifugation step was repeated and the resulting pellet resuspended in the [^3H]BTX-B binding buffer at a concentration of 20-25 mg wet weight per ml assay buffer.
Both assays were carried out using 14 ml polypropylene test tubes to which a range of concentrations of the compounds under test were added.
[^3H]BTX-B binding was carried out using the method described by Catterall et al (1981), except that both bovine serum albumin and TTX were omitted from the incubation medium.
IC50 values were obtained from radioligand displacement or guanidine flux inhibition curves by plotting log10 concentration vs bound ligand/guanidine uptake according the equation:— y=Rmin+Rsp/{1+exp [−n(x−C)]}
and • C=IC50 (i.e. concentration required to inhibit 50% of specific binding Hippocampal Slice Assay

[1] = molecular target: T1, DiHydroFolate Reductase (DHFR) (Rattus norvegicus, UniProt Q920D2); assay: Inhibition of binding of [3H]methotrexate to rat liver homogenate supernatant (DHFR); conditions: read-out: DHFR (% inhibition @ 125 μm)
T1 construct: from tissue; host or cells: rat liver homogenate, 47,500 x g supernatant
T1 sequence (Q920D2 1-187): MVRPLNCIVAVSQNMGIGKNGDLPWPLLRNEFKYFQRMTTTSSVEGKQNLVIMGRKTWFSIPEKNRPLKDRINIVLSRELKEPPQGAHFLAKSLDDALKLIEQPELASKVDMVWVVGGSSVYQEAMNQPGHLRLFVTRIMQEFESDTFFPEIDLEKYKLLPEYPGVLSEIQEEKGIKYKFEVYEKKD
Protocol: All steps were carried out at 4° (or on ice). Freshly dissected rat liver was dissected into 0.25M ice-cold Sucrose and subsequently homogenised (U-turrax) in 50 mM pH 6.0 phosphate buffer (10 ml/g tissue) containing 15 mM Dithiothreitol. The resulting homogenate was centrifuged @ 47,500×g for 20 min and supernatant (filtered through cotton wool to remove fatty lumps) stored @-80° before use (Rothenberg et al).
Inhibition of the binding of [^3H]methotrexate to rat liver homogenate supernatant fractions were carried out essentially as described by Arons et al, 1975.

| Compound | IC50 (sodium channel (Nach)) [µM] | inhibition at […] [1] [%] |
| --- | --- | --- |
| Cc1ccc(C2(c3nnc(N)nc3N)CCCCC2)cc1 [CEN-239] | < 0.5 | 73 |
| Nc1nnc(C(Cc2ccccc2)c2ccccc2)c(N)n1 (stereo not drawn) [CEN-241] | – | 90 |
| Nc1nnc(-c2cccc(OCc3cccc4ccccc34)c2)c(N)n1 [CEN-245] | 57 | 55 |
| COc1ccc(C2(c3nnc(N)nc3N)CC2)cc1 [CEN-244] | 115 | 0 |
| Nc1nnc(C2(c3ccccc3)CCCCC2)c(N)n1 [CEN-230] | 23 | 0 |
| Nc1nnc(C2(c3ccccc3)CC2)c(N)n1 [CEN-240] | – | 8 |
| COc1ccc(C2(c3nnc(N)nc3N)CCCC2)cc1 [CEN-234] | 3 | 22 |
| COc1ccc(C2(c3nnc(N)nc3N)CCCCC2)cc1 [CEN-231] | 1 | – |
| Nc1nnc(C2(c3ccccc3)CCCC2)c(N)n1 [CEN-232] | 5 | 100 |
| Nc1nnc(C2CC2c2ccccc2)c(N)n1 (stereo not drawn) [CEN-238] | > 190 | – |
| Nc1nnc(C2(c3ccc(Cl)cc3Cl)CC2)c(N)n1 [CEN-235] | 8 | 63 |
| Nc1nnc(C(c2ccc(F)cc2)c2ccc(F)cc2)c(N)n1 [CEN-247] | 9 | 0 |
| Cc1ccc(C2(c3nnc(N)nc3N)CCCC2)cc1 [CEN-237] | < 0.5 | 70 |
| Nc1nnc(C2(c3cccc(F)c3)CCCC2)c(N)n1 [CEN-236] | 4 | 14 |

Reference: patent US8748600B2, “Cyclic triazo sodium channel blockers” (University of Greenwich, priority 2009, dated 2014)
